Assay results published in patent publication US7981861B2, “Method of performing angioplasty with a GLP-1 molecule” (Amylin Pharmaceuticals, Inc., priority 2000, dated 2011).
Entries after “also recorded” stand apart in the source; their conditions may differ.

Legend:
[1] = tested on: Wistar rats; test: LAD coronary artery occlusion (25 min) and 2-hour reperfusion, infarct size in anesthetized rats; assay type: in vivo, rat
Method: Wistar rats were anesthetized with thiopentone sodium. The left anterior descending (LAD) coronary artery was occluded. After 25 minutes of occlusion, reperfusion was allowed for 2 hours. This animal model has been described previously. Zacharowski, et al., Br. J. Pharmacol. 128; 945-952 (1999).
GLP-1 (1.5 μg/kg/min) was infused into anesthetized rats (n=10), commencing 10 minutes prior to reperfusion and continuing throughout the 2-hour reperfusion. Controls were sham operated with no occlusion (n=7), LAD occlusion+reperfusion+administration of saline (n=12), and LAD occlusion and reperfusion with a buffer of 10 mM sodium acetate, 5.05% D-mannitol, pH 4.5, (“vehicle”) at 1.5 mL/kg/hour (n=10).
Following reperfusion, the coronary artery was reoccluded, and Evans Blue dye (4 ml, 2% w/v) was injected into the left ventricle of the heart via a right carotid artery cannula. Evans Blue stains perfused myocardium, while occluded vascular bed remains uncolored. Animals were then killed by anesthetic overdose and the hearts were removed for examination. Hearts were sectioned and the right ventricular wall was removed. The area at risk (pink) was separated from the non-ischemic tissue (blue). The area at risk (pink) was then cut into smaller pieces and stained with p-nitroblue tetrazolium (NBT; 0.5 mg/ml) for 20 min. at 37° C. In the presence of intact dehydrogenase enzyme systems (viable myocardium), NBT forms a dark blue compound. Areas of necrosis lack the enzyme and remain unstained. Tissue was separated according to staining and weighed to determine infarct size as a percentage of the area at risk.

[2] = tested on: dogs; test: 10-minute left circumflex coronary (LCx) occlusion/reperfusion, myocardial stunning in dogs; assay type: in vivo, dog; conditions: GLP-1 infusion for 24 hours beginning 1 minute prior to reperfusion
Method: Two dogs were studied at baseline before, during, and for 6 hours after a 10-minute complete left circumflex coronary (LCx) occlusion. Each dog underwent occlusion/reperfusion in the presence and absence of GLP-1 infusion for 24 hours, beginning 1 minute prior to reperfusion. GLP-1 infusion enhanced the recovery of ventricular wall regional dysfunction following 10 minutes of coronary artery occlusion.

GLP-1
infarct size as a percentage of the area at risk ([1]; GLP-1 1.5 μg/kg/min infusion from 10 minutes prior to reperfusion and throughout 2-hour reperfusion, n=10, vehicle 46±4%, saline 50±3%): 31±4% | reduction in infarct size compared with the vehicle group ([1]; GLP-1 1.5 μg/kg/min infusion, statistically significant (p<0.05)): approximately 33% | reduction of infarct size (summary statement) ([1]; GLP-1 during last 10 min. of 25 min. ischemia and throughout 2-hour reperfusion, rats): 30% | hemodynamics ([1]; rats, GLP-1 during last 10 min. of ischemia and throughout 2-hour reperfusion): significantly improved | stunning period during reperfusion after subcritical ischemia ([2]; dogs): significantly reduced; also recorded: reduced stunning | recovery of ventricular wall regional dysfunction following 10 minutes of coronary artery occlusion ([2]; two dogs): enhanced
